The record followed here is patent publication US20080124285A1, “Merocyanine Derivatives for Cosmetic Use” (priority 2003, published 2008).

A short description of the first data set: UV absorption maximum (λmax) in solvent. It is filed as physicochemical. The settings on record: acetonitril; preparation example.
In turn, `CCOC(=O)/C(C#N)=C1\C=C(NCCNC2=C/C(=C(/C#N)C(=O)OCC)CC(C)(C)C2)CC(C)(C)C1` [MC02] had a λmax of 389 nm.

Staying with this data set, now noted: ethanol; preparation example.
Regarding `CCOC(=O)C(C(=O)OCC)=C1C=C(NC2CCCCC2NC2=CC(=C(C(=O)OCC)C(=O)OCC)CC(C)(C)C2)CC(C)(C)C1` (centres unmarked) [MC10], the λmax is reported as 373 nm.

Take `CCOC(=O)/C(C#N)=C1\C=C(N2CCN(C3=C/C(=C(/C#N)C(=O)OCC)CC(C)(C)C3)CC2)CC(C)(C)C1` [MC07]: the λmax was 406 nm.

The data set is the same for the next values; noted with them: in Acetonitril; Table MC1a (intermediates, UV-B absorbers).
As for `CC1(C)CC(=O)C=C(NC2CCCCC2NC2=CC(=O)CC(C)(C)C2)C1` (centres unmarked) [MC08a], the “λmax [nm]” value is on record as 295(Acetonitril) nm.

The same data set, now with this note: in Acetonitrile; Table MC1.
Consider `CC1(C)CC(NCC2(C)CC(NC3=CC(=C(C#N)C#N)CC(C)(C)C3)CC(C)(C)C2)=CC(=C(C#N)C#N)C1` (centres unmarked) [MC37], for which the “λmax [nm]” value is reported as 383(Aceto-nitrile) nm.

Staying with this data set, now noted: in EtOH; Table MC1.
Take `CCCCC(CC)COC(=O)/C(C#N)=C1/C=C(NCCNC2=C/C(=C(\C#N)C(=O)OCC(CC)CCCC)CC(C)(C)C2)CC(C)(C)C1` (centres unmarked) [MC01]: the “λmax [nm]” value was 366,398(EtOH) nm.

As to `CC1(C)CC(NC2CCCCC2NC2=CC(=C(C#N)C#N)CC(C)(C)C2)=CC(=C(C#N)C#N)C1` (centres unmarked) [MC34], the “λmax [nm]” value is reported as 357/388(EtOH).

As to `CCOC(=O)C(C(=O)OCC)=C1C=C(NCC2(C)CC(NC3=CC(=C(C(=O)OCC)C(=O)OCC)CC(C)(C)C3)CC(C)(C)C2)CC(C)(C)C1` (centres unmarked) [MC25], the “λmax [nm]” value is reported as 378(EtOH) nm.

On to `CCCCC(CC)COC(=O)/C(C#N)=C1/C=C(NC2CCCCC2NC2=C/C(=C(\C#N)C(=O)OCC(CC)CCCC)CCC2)CCC1` (centres unmarked) [MC36], for which the “λmax [nm]” value was 401(EtOH) nm.

Regarding `COC(=O)C(C(=O)OC)=C1C=C(NC2CCCCC2NC2=CC(=C(C(=O)OC)C(=O)OC)CCC2)CCC1` (centres unmarked) [MC35], the “λmax [nm]” value is recorded as 389(EtOH) nm.

For the molecule `CCOC(=O)/C(C#N)=C1\C=C(NCCNC2=C/C(=C(/C#N)C(=O)OCC)CC(C)(C)C2)CC(C)(C)C1` [MC02], the “λmax [nm]” value is listed as 366,398(EtOH) nm.

As for `CCOC(=O)C(C(=O)OCC)=C1C=C(NC2CCCCC2NC2=CC(=C(C(=O)OCC)C(=O)OCC)CC(C)(C)C2)CC(C)(C)C1` (centres unmarked) [MC10], the “λmax [nm]” value was 384(EtOH) nm.

On to `CCOC(=O)/C(C#N)=C1\C=C(NCCCCCCNC2=C/C(=C(/C#N)C(=O)OCC)CCC2)CCC1` [MC18], for which the “λmax [nm]” value is given as 388(EtOH) nm.

`CCOC(=O)C(C(=O)OCC)=C1C=C(N2CCN(C3=CC(=C(C(=O)OCC)C(=O)OCC)CC(C)(C)C3)CC2)CC(C)(C)C1` [MC08]: the “λmax [nm]” value was 373(EtOH) nm.

As to `CCOC(=O)/C(C#N)=C1\C=C(N2CCN(C3=C/C(=C(/C#N)C(=O)OCC)CC(C)(C)C3)CC2)CC(C)(C)C1` [MC07], the “λmax [nm]” value is reported as 406(EtOH) nm.

Regarding `CCOC(=O)C(C(=O)OCC)=C1C=C(NCCNC2=CC(=C(C(=O)OCC)C(=O)OCC)CC(C)(C)C2)CC(C)(C)C1` [MC03], the “λmax [nm]” value is 383(EtOH) nm.

Consider `CCOC(=O)C(C(=O)OCC)=C1C=C(NCCCCCCNC2=CC(=C(C(=O)OCC)C(=O)OCC)CCC2)CCC1` [MC19], for which the “λmax [nm]” value is given as 370(EtOH) nm.

Consider `CCOC(=O)/C(C#N)=C1\C=C(NC2CC(C)(C)CC(C)(CNC3=C/C(=C(\C#N)C(=O)OCC)CC(C)(C)C3)C2)CC(C)(C)C1` (centres unmarked) [MC24], for which the “λmax [nm]” value is on record as 391(EtOH) nm.

Staying with this data set, now noted: in EtOH; Table MC1a (intermediates, UV-B absorbers).
As to `CC1(C)CC(=O)C=C(NCCNC2=CC(=O)CC(C)(C)C2)C1` [MC01a], the “λmax [nm]” value is reported as 296 (EtOH) nm.

For `CC1(C)CC(=O)C=C(N2CCN(C3=CC(=O)CC(C)(C)C3)CC2)C1` [MC06a], the “λmax [nm]” value was 309 (EtOH) nm.
